In PubChem BioAssay (NCI) one finds GI50 and TGI data, which are given here for seven compounds.

Each structure is given as a SMILES string.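 In this assay, cells in 96-well plates receive the compound at five concentrations for 48 hours. Endpoints are linearly interpolated between the surrounding concentrations. GI50 = concentration required for 50% inhibition of growth. TGI: concentration producing complete growth inhibition.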 A value given as a limit tells only on which side of the number the result lay.

Test in all cases: growth of human tumour cells (NCI), 48 h
In assay [1] the test system is UACC-257 melanoma.
For assay [2], the system named is SK-MEL-2 melanoma.
Assay [3] relates to A498 renal.
Assay [4] deals with HCT-15 colon.
For assay [5], the system named is HT29 colon.
The subject of assay [6] is MALME-3M melanoma.
In assay [7] the test system is A549 NSCLC.
In assay [8] the test system is DU-145 prostate.
Assay [9] has as its system HS 578T breast.
In assay [10] the test system is HOP-62 NSCLC.

Take `Cn1c(=O)n(C)c2cc(CNCCNc3ccnc4cc(Cl)ccc34)ccc21`: the GI50 was 17.6 µM in assay [1]; 22.6 µM in assay [2]; 1.57 µM in assay [3]; 31 µM in assay [4]; 21.1 µM in assay [5]; 16.6 µM in assay [6]. Besides, the GI50 is 50.3 µM in [7], 38.5 µM in assay [8], 23.8 µM in [9] and 39.4 µM in assay [10]. Besides, the TGI in [1] was 33.3 µM; in assay [2] it was 52.5 µM; in assay [3], 27 µM; in assay [4], more than 100 µM; in [5], more than 100 µM; in [6] it was 32.9 µM. The TGI in [7] was more than 100 µM; in assay [8], more than 100 µM; in [9], 95 µM; in assay [10], more than 100 µM.

With `Cc1ccc(S(=O)(=O)c2nc(-c3ccccc3)oc2S(C)(=O)=O)cc1`, the GI50 in assay [1] is 3.01 µM; in [2] it was 3.4 µM; in [3] it was 15.4 µM; in assay [4], 1.7 µM; in [5], 2.81 µM; in assay [6], 1.9 µM. For the same compound, the GI50 in [7] was 14.2 µM; in assay [8], 1.71 µM; in [9] it was 10.1 µM; in assay [10] it was 13.3 µM. Moreover, the TGI amounted to 12.2 µM in assay [1]; 14.1 µM in assay [2]; 28.7 µM in assay [3]; 3.31 µM in [4]; 6.6 µM in assay [5]; 3.68 µM in [6]. In addition, the TGI in assay [7] amounted to 27.3 µM; in assay [8], 3.15 µM; in assay [9] it was 43.8 µM; in assay [10] it was 26.1 µM.

For `CCn1cc(/C=C2\Oc3cc(OCC#N)ccc3C2=O)c2cc(OC)ccc21`, the GI50 in assay [1] was 57.8 µM; in assay [2], 0.807 µM; in [3], 10.3 µM; in [4] it was 0.153 µM; in [5], 0.134 µM; in assay [7], 2.48 µM. The GI50 is 0.44 µM in [8], 0.267 µM in assay [9] and 0.622 µM in assay [10]. The TGI is more than 100 µM in [1]; more than 68.5 µM in assay [2]; more than 100 µM in [3]; more than 100 µM in assay [4]; more than 100 µM in assay [5]; more than 70.7 µM in assay [6]. Moreover, the TGI in [7] is more than 100 µM; in assay [8], more than 62 µM; in assay [9], more than 28.8 µM; in assay [10] it was more than 46.6 µM.

Regarding `FC(F)(F)c1ccc(-c2nn3ncccc3c2-c2ccnc(Nc3ccc4c(c3)OCCO4)n2)cc1`, the GI50 in assay [1] is 7.23 µM; in assay [2], 11.6 µM; in [3] it was 4.68 µM; in assay [4], 8.18 µM; in assay [5], 6.03 µM; in assay [6] it was 7.29 µM. Moreover, the GI50 was 21.4 µM in assay [7], 16.4 µM in assay [8], 10.9 µM in [9] and more than 25 µM in assay [10]. The TGI in [1], in [2], in [3], in assay [4], in assay [5] and in [6] was more than 25 µM each time. Further, the TGI in assay [7], in assay [8], in assay [9] and in assay [10] was more than 25 µM in each case.

Turning to `COc1cc([C@@H]2c3cc4c(cc3[C@H](OC(C)=O)[C@H]3COC(=O)[C@@H]23)OCO4)cc(OC)c1OC`, the TGI in assay [1] is more than 100 µM; in assay [3], 0.583 µM; in assay [4] it was more than 100 µM; in assay [6], more than 100 µM; in assay [7], more than 100 µM; in [8], 0.649 µM. The TGI is 0.682 µM in [9] and more than 100 µM in [10]. The GI50 is 0.342 µM in [2]; 0.175 µM in assay [3]; 0.371 µM in [4]; 0.343 µM in assay [5]; 0.463 µM in assay [7]; 0.245 µM in assay [8]. Moreover, the GI50 in assay [9] is 0.253 µM; in assay [10], 0.4 µM.

Turning to `N=c1ccc2nc3ccc(N)cc3sc-2c1`, the GI50 in assay [1] is 2.75 µM; in assay [2], 6.08 µM; in assay [3], 26.2 µM; in assay [4] it was 5.4 µM; in assay [5], 11.1 µM; in assay [6], 6.22 µM. For the same compound, the GI50 in assay [7] is 3.43 µM; in [8], 16.8 µM; in [9], 20.9 µM; in assay [10] it was 5.06 µM. Also, the TGI in [1] is 11.1 µM; in assay [2], 22.5 µM; in [3], more than 100 µM; in assay [4], more than 100 µM; in assay [5], 40.8 µM; in assay [6] it was 32.5 µM. Besides, the TGI in assay [7] was more than 100 µM; in assay [8], 40.8 µM; in [9], more than 100 µM; in [10] it was 49.4 µM.

In the case of `CCSc1ccc([C@@H]2[C@@H](O)C(=O)N2c2cc(OC)c(OC)c(OC)c2)cc1`, the GI50 is 0.0877 µM in [1]; 0.0221 µM in assay [2]; less than 0.01 µM in assay [3]; less than 0.0109 µM in assay [4]; less than 0.0155 µM in [5]; 15.8 µM in [6]. The GI50 in assay [7] was less than 0.0159 µM; in assay [8], 0.0252 µM; in assay [9] it was less than 0.01 µM; in assay [10] it was less than 0.0125 µM. The TGI in [1] was 35 µM; in assay [2] it was 28.4 µM; in assay [3] it was 0.829 µM; in assay [4], more than 44.3 µM; in [5] it was 11.5 µM; in assay [6], 50.4 µM. Further, the TGI in assay [7] is 80.6 µM; in [8], more than 50.3 µM; in assay [9], more than 69.2 µM; in assay [10], 32.5 µM.
